Laboratory results published in PubChem BioAssay (NCI).
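How tested: cells in 96-well plates exposed to compound for 48 hours at five concentrations. GI50 marks 50% less growth. TGI: concentration producing complete growth inhibition.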

Key:
Experiment in all cases: inhibition of tumour cell growth, NCI panel, 48 h
LOX IMVI melanoma = tested on: LOX IMVI melanoma
MOLT-4 leukemia = tested on: MOLT-4 leukemia
NCI/ADR-RES ovarian = tested on: NCI/ADR-RES ovarian
K-562 leukemia = tested on: K-562 leukemia
MCF7 breast = tested on: MCF7 breast
OVCAR-3 ovarian = tested on: OVCAR-3 ovarian
HCT-15 colon = tested on: HCT-15 colon
TK-10 renal = tested on: TK-10 renal
OVCAR-5 ovarian = tested on: OVCAR-5 ovarian
EKVX NSCLC = tested on: EKVX NSCLC
NCI-H522 lung = tested on: NCI-H522 lung
DU-145 prostate = tested on: DU-145 prostate
RPMI-8226 leukemia = tested on: RPMI-8226 leukemia
SW-620 colon = tested on: SW-620 colon
BT-549 breast = tested on: BT-549 breast
MALME-3M melanoma = tested on: MALME-3M melanoma
CCRF-CEM leukemia = tested on: CCRF-CEM leukemia
COLO 205 colon = tested on: COLO 205 colon
A549 NSCLC = tested on: A549 NSCLC
SK-MEL-2 melanoma = tested on: SK-MEL-2 melanoma
OVCAR-4 ovarian = tested on: OVCAR-4 ovarian
MDA-N = tested on: MDA-N
HT29 colon = tested on: HT29 colon
PC-3 prostate = tested on: PC-3 prostate
HL-60(TB) leukemia = tested on: HL-60(TB) leukemia
HCC-2998 colon = tested on: HCC-2998 colon
HOP-92 NSCLC = tested on: HOP-92 NSCLC
KM12 colon = tested on: KM12 colon
IGROV1 ovarian = tested on: IGROV1 ovarian
SK-MEL-5 melanoma = tested on: SK-MEL-5 melanoma
MDA-MB-435 = tested on: MDA-MB-435
UACC-257 melanoma = tested on: UACC-257 melanoma
SK-OV-3 ovarian = tested on: SK-OV-3 ovarian
786-0 renal = tested on: 786-0 renal
NCI-H23 lung = tested on: NCI-H23 lung
UACC-62 melanoma = tested on: UACC-62 melanoma
HCT-116 colon = tested on: HCT-116 colon
ACHN renal = tested on: ACHN renal
NCI-H226 lung = tested on: NCI-H226 lung
HS 578T breast = tested on: HS 578T breast
SN12C renal = tested on: SN12C renal
HOP-62 NSCLC = tested on: HOP-62 NSCLC
T-47D breast = tested on: T-47D breast
OVCAR-8 ovarian = tested on: OVCAR-8 ovarian
UO-31 renal = tested on: UO-31 renal
CAKI-1 renal = tested on: CAKI-1 renal
SR leukemia = tested on: SR leukemia
MDA-MB-231 breast = tested on: MDA-MB-231 breast
M14 melanoma = tested on: M14 melanoma
SF-539 CNS = tested on: SF-539 CNS
SK-MEL-28 melanoma = tested on: SK-MEL-28 melanoma
NCI-H460 lung = tested on: NCI-H460 lung
SF-295 CNS = tested on: SF-295 CNS
SF-268 CNS = tested on: SF-268 CNS
U251 CNS = tested on: U251 CNS
SNB-75 CNS = tested on: SNB-75 CNS
SNB-19 CNS = tested on: SNB-19 CNS

Structure (SMILES): O=c1[nH]cnc2c1ncn2C1CCC(CO)O1 (centres undefined)
- GI50 (LOX IMVI melanoma): > 1000 µM
- TGI (LOX IMVI melanoma): > 1000 µM
- GI50 (MOLT-4 leukemia): > 1000 µM
- TGI (MOLT-4 leukemia): > 1000 µM
- GI50 (NCI/ADR-RES ovarian): > 1000 µM
- TGI (NCI/ADR-RES ovarian): > 1000 µM
- GI50 (K-562 leukemia): > 1000 µM
- TGI (K-562 leukemia): > 1000 µM
- GI50 (MCF7 breast): > 1000 µM
- TGI (MCF7 breast): > 1000 µM
- GI50 (OVCAR-3 ovarian): > 1000 µM
- TGI (OVCAR-3 ovarian): > 1000 µM
- GI50 (HCT-15 colon): > 1000 µM
- TGI (HCT-15 colon): > 1000 µM
- TGI (TK-10 renal): > 1000 µM
- GI50 (OVCAR-5 ovarian): > 1000 µM
- TGI (OVCAR-5 ovarian): > 1000 µM
- GI50 (EKVX NSCLC): > 1000 µM
- TGI (EKVX NSCLC): > 1000 µM
- GI50 (NCI-H522 lung): > 1000 µM
- TGI (NCI-H522 lung): > 1000 µM
- TGI (DU-145 prostate): > 1000 µM
- GI50 (RPMI-8226 leukemia): > 1000 µM
- TGI (RPMI-8226 leukemia): > 1000 µM
- GI50 (SW-620 colon): > 1000 µM
- TGI (SW-620 colon): > 1000 µM
- TGI (BT-549 breast): > 1000 µM
- GI50 (MALME-3M melanoma): > 1000 µM
- TGI (MALME-3M melanoma): > 1000 µM
- GI50 (CCRF-CEM leukemia): > 1000 µM
- TGI (CCRF-CEM leukemia): > 1000 µM
- GI50 (COLO 205 colon): > 1000 µM
- TGI (COLO 205 colon): > 1000 µM
- GI50 (A549 NSCLC): > 1000 µM
- TGI (A549 NSCLC): > 1000 µM
- GI50 (SK-MEL-2 melanoma): > 1000 µM
- TGI (SK-MEL-2 melanoma): > 1000 µM
- GI50 (OVCAR-4 ovarian): > 1000 µM
- TGI (OVCAR-4 ovarian): > 1000 µM
- TGI (MDA-N): > 1000 µM
- GI50 (HT29 colon): > 1000 µM
- TGI (HT29 colon): > 1000 µM
- TGI (PC-3 prostate): > 1000 µM
- GI50 (HL-60(TB) leukemia): > 1000 µM
- TGI (HL-60(TB) leukemia): > 1000 µM
- GI50 (HCC-2998 colon): > 1000 µM
- TGI (HCC-2998 colon): > 1000 µM
- GI50 (HOP-92 NSCLC): > 1000 µM
- TGI (HOP-92 NSCLC): > 1000 µM
- GI50 (KM12 colon): > 1000 µM
- TGI (KM12 colon): > 1000 µM
- GI50 (IGROV1 ovarian): > 1000 µM
- TGI (IGROV1 ovarian): > 1000 µM
- GI50 (SK-MEL-5 melanoma): > 1000 µM
- TGI (SK-MEL-5 melanoma): > 1000 µM
- TGI (MDA-MB-435): > 1000 µM
- GI50 (UACC-257 melanoma): > 1000 µM
- TGI (UACC-257 melanoma): > 1000 µM
- GI50 (SK-OV-3 ovarian): > 1000 µM
- TGI (SK-OV-3 ovarian): > 1000 µM
- TGI (786-0 renal): > 1000 µM
- GI50 (NCI-H23 lung): > 1000 µM
- TGI (NCI-H23 lung): > 1000 µM
- GI50 (UACC-62 melanoma): > 1000 µM
- TGI (UACC-62 melanoma): > 1000 µM
- GI50 (HCT-116 colon): > 1000 µM
- TGI (HCT-116 colon): > 1000 µM
- TGI (ACHN renal): > 1000 µM
- GI50 (NCI-H226 lung): > 1000 µM
- TGI (NCI-H226 lung): > 1000 µM
- TGI (HS 578T breast): > 1000 µM
- GI50 (SN12C renal): > 1000 µM
- TGI (SN12C renal): > 1000 µM
- GI50 (HOP-62 NSCLC): > 1000 µM
- TGI (HOP-62 NSCLC): > 1000 µM
- TGI (T-47D breast): > 1000 µM
- GI50 (OVCAR-8 ovarian): > 1000 µM
- TGI (OVCAR-8 ovarian): > 1000 µM
- TGI (UO-31 renal): > 1000 µM
- GI50 (CAKI-1 renal): > 1000 µM
- TGI (CAKI-1 renal): > 1000 µM
- TGI (SR leukemia): > 1000 µM
- TGI (MDA-MB-231 breast): > 1000 µM
- TGI (M14 melanoma): > 1000 µM

Structure (SMILES): Cc1cccc(/C=N/NC(=S)Nc2ccc(Cl)cc2)n1
- TGI (LOX IMVI melanoma): 10.7 µM
- TGI (MOLT-4 leukemia): 10.9 µM
- TGI (SF-539 CNS): 12.7 µM
- TGI (NCI/ADR-RES ovarian): 26 µM
- TGI (K-562 leukemia): > 100 µM
- TGI (MCF7 breast): 25.9 µM
- TGI (OVCAR-3 ovarian): 61 µM
- TGI (HCT-15 colon): 23.1 µM
- TGI (TK-10 renal): 71.7 µM
- TGI (OVCAR-5 ovarian): 73.3 µM
- TGI (EKVX NSCLC): 23.1 µM
- TGI (NCI-H522 lung): 4.93 µM
- TGI (DU-145 prostate): > 100 µM
- TGI (SK-MEL-28 melanoma): 20 µM
- TGI (RPMI-8226 leukemia): > 100 µM
- TGI (SW-620 colon): 20 µM
- TGI (NCI-H460 lung): 15.9 µM
- TGI (BT-549 breast): 30.4 µM
- TGI (MALME-3M melanoma): 20.8 µM
- TGI (CCRF-CEM leukemia): 42.8 µM
- TGI (COLO 205 colon): 17.6 µM
- TGI (A549 NSCLC): 13.6 µM
- TGI (SK-MEL-2 melanoma): 25.6 µM
- TGI (SF-295 CNS): 14.4 µM
- TGI (OVCAR-4 ovarian): > 100 µM
- TGI (MDA-N): 25.5 µM
- TGI (HT29 colon): 54.5 µM
- TGI (PC-3 prostate): 26.2 µM
- TGI (SF-268 CNS): 17.4 µM
- TGI (HCC-2998 colon): 40.3 µM
- TGI (HOP-92 NSCLC): 20 µM
- TGI (KM12 colon): 40.8 µM
- TGI (IGROV1 ovarian): 12.7 µM
- TGI (SK-MEL-5 melanoma): 8.97 µM
- TGI (U251 CNS): 13.5 µM
- TGI (MDA-MB-435): 17.5 µM
- TGI (UACC-257 melanoma): 18.9 µM
- TGI (SK-OV-3 ovarian): 10.8 µM
- TGI (786-0 renal): 12.1 µM
- TGI (NCI-H23 lung): 34.9 µM
- TGI (UACC-62 melanoma): 3.68 µM
- TGI (HCT-116 colon): 12.9 µM
- TGI (ACHN renal): 11.3 µM
- TGI (HS 578T breast): 17.5 µM
- TGI (SN12C renal): 34 µM
- TGI (HOP-62 NSCLC): 11.9 µM
- TGI (T-47D breast): > 100 µM
- TGI (OVCAR-8 ovarian): 33.7 µM
- TGI (UO-31 renal): 12.5 µM
- TGI (CAKI-1 renal): 13.3 µM
- TGI (SR leukemia): > 100 µM
- TGI (SNB-75 CNS): 16.1 µM
- TGI (MDA-MB-231 breast): 15.8 µM
- TGI (SNB-19 CNS): 22.2 µM
- TGI (M14 melanoma): 7.69 µM
